# Data reported in patent publication US6348571B1, “Corticotropin release inhibiting factor and methods of using same” (Northwestern University, priority 1994, dated 2002).
# Ends that are not written are not given here.
# What was measured:
# [1] = system: SCW-induced inflammatory response; experiment: Thyroid status and SCW-induced inflammatory response in female rats; type: in vivo, rat
# Source text: RA is an autoimmune disease characterized by chronic degradation of the joints resulting from inflammation of synovial membranes. SCW-induced inflammation in the autoimmune prone female Lewis rat is an accepted animal model for the study of RA. […] It is likely that increased thyroid activity decreases the susceptibility to inflammatory immune disease by increasing glucocorticoid levels. The discovery of CRIF encoded within the same precursor as TRH establishes a direct link between the HPA and thyroid axes. Thyroid hormones may play a fundamental role in regulating the HPA axis by modulation of levels of prepro-TRH mRNA.
# To determine the role played by thyroid hormones and concomitant changes in the HPA axis in the development of SCW-induced inflammatory response, expression of genes which reflect the status of thyroid function (TRH), pituitary-adrenal activity (POMC) and inflammation (IL-1β and MIP-1α, a macrophage specific inflammatory protein) was measured. Adult female rats were fed a regular diet (control), or a regular diet plus 0.012% T4 (hyperthyroid) or 0.05% 6-propyl-thiouracil (PTU) supplied in the in drinking water (hypothyroid), for seven weeks. A preparation of SCW (20 μg/g of body weight) was administered intraperitoneally to the rats three days before decapitation. Anterior pituitary POMC, hypothalamic TRH and peritoneal macrophage IL-1β and MIP-1α mRNA levels were assessed by Northern blot hybridization analysis using specific cDNA probes. The levels of mRNA were normalized to the housekeeping gene, GAPD, and were quantified by image analysis densitometry. Plasma levels of TSH and CORT were determined by RIA.
# At-20 cells = experiment: Inhibition of PMA- or forskolin-stimulated ACTH release in At-20 cells by small CRIF peptides; type: cell-based; details: PMA 100 nM, FIG. 18
# Method: FIG. 19 is a graph and amino acid sequences [SEQ ID NOS:1, 6 and 5, resepctively], where the graph depicts the fact that forskolin-stimulated ACTH secretion is inhibited by peptides derived from prepro-TRH 178-199. The biological activity of small CRIF peptides was tested in vitro, using inhibition of ACTH release in At-20 cells as the bioassay. These peptides were tested in 2-7 independent experiments, where treatments were added in triplicate. Forskolin was used at a concentration of 20 μM, and PMA was used at a concentration of 100 nM.
# CRIF peptides having either four contiguous amnino acids or nine contiguous amino acids positioned between the fourth and fifth TRH sequence in a rprepro-TRH polypeptide were prepared. These peptides are referred to herein as rprepro-TRH 196-199 (SEQ ID NO:5, having four contiguous amino acids) and rprepro-TRH 191-199 (SEQ ID NO:6, having nine contiguous amino acids). The CRIF activity of each of these peptides was assessed in vitro in a bioassay, wherein inhibition of ACTH release in At-20 cells was used as a measure of CRIF activity. Full length CRIF (rprepro-TRH 178-199) was used as a positive control. […] Thus, CRIF peptides having less than twenty two contiguous amino acids have CRIF activity.
# F344XBN rats = experiment: Forced swim test after sub-acute icv administration; type: in vivo
# Method: In FIG. 20 there is shown data which establish that prepro-TRH 191-199 decreased immobility in the forced swim test when the peptide was administered to a rat icv. In this experiment, adult male Sprague-Dawley or F1 Brown Norway/Fisher344 rats were used in these experiments. Rats were implanted with cannulae into the lateral ventricle as described previously (McGivern, 1997, J. Neurosci. 17:4886-4894). For the stereotaxic surgery, animals were anesthetized (ketamine, 50 mg/kg/xylazine, 8 mg/kg) and positioned in a stereotaxic head fame. At the end of behavioral testing, placements will be verified by anesthetizing the animal with pentobarbital (45 mg/kg) and injecting 1 μl tryphan blue staining solution through the cannulae just prior to decapitation. Only data from animals with correct placement were included in the analysis.
# At least 7 days after the stereotaxic surgery, animals were subjected to an initial 15 minute swim pretest, followed by a 5-minute swim test 24 hours later. Rats received two injections of sterile vehicle or prepro-TRH 178-199 (1.5, 3.0, 6.0 or 12.0 μg/kg; 0.6, 1.2., 2.3 and 4.6 nmol/kg) in […] between the pretest and the test. 15 minutes after the initial (pre)-swim and 5 minutes before the test swim. In the case of prepro-TRH 191-199 administration, the C-terminal peptide was administered in this sub-acute fashion at 2.2 μg/kg (2.3 nmol/kg) dose, which is equivalent to 6 μg/kg prepro-TRH 178-199. Water was chosen instead of saline or artificial CSF for solubility reasons: the peptide dissolved much better in sterile, pyrogen-free water and animals tolerated this vehicle very well even after 14 days of daily administration. F344XBN rats were used. Prepro-TRH 191-199 had effects very similar to those of the full-length peptide.
# rats = experiment: Side effects in rats treated in vivo with CRIF
# [2] = system: primary anterior pituitary cells; experiment: Bioassay of synthetic prepro-TRH peptides: ACTH secretion in primary anterior pituitary cells; type: cell-based; details: primary pituitary cell cultures, 10 nM CRF
# Method: (§1) The bioactivity of various synthetic peptides corresponding to the various prepro-TRH intervening sequences was assessed in AtT-20 or primary anterior pituitary cells. All experiments were conducted in triplicate. To perform this assay, AtT-20 cells were plated at a density of 10^5 cells/well in 24 well plates. After 24 hours, the medium was removed and replaced with steroid-free medium containing the test peptide at a concentration of 10^−10-10^−6 M. When primary pituitary cultures were used, freshly dispersed anterior pituitary cells (1-2×10^5 cells/well) were plated in 24 well plates for 48 hours using steroid free media. Again, after 24 hours, the medium was removed and replaced with steroid-free medium containing the test peptide at a concentration of 10^−10-10^−6 M. The supernatants from the cells were harvested after 4 hours of incubation under unstimulated or CRF-stimulated conditions. AtT-20 cells were stimulated with 50 nM CRF and primary pituitary cells were stimulated with 10 nM CRF. The supernatants were centrifuged and stored at −80° C.
# ACTH-like immunoreactivity was measured using an antiserum which reacts with amino acids 1-24 and 1-39 on ACTH on an equimolar basis. The assay is described in Redei et al. (1988, Endocrinology, 123:2736-2743). For these studies, ^125I-ACTH 1-39 was used as a tracer. This assay is capable of detecting as little as 3 pg ACTH/tube. […]
# AtT-20 cells = experiment: Bioassay of synthetic prepro-TRH peptides: ACTH secretion in AtT-20 cells; type: cell-based, mouse; details: peptide 10^-10-10^-6 M, 4 hours, 50 nM CRF
# Method: as §1
# ACTH-like immunoreactivity was measured using an antiserum which reacts with amino acids 1-24 and 1-39 on ACTH on an equimolar basis. The assay is described in Redei et al. (1988, Endocrinology, 123:2736-2743). For these studies, ^125I-ACTH 1-39 was used as a tracer. This assay is capable of detecting as little as 3 pg ACTH/tube. Intraassay and interassay coefficients of variation were 6.4% and 11.6% respectively.
# Peptides prepro-TRH 115-151, 160-169 and 178-199 were obtained from Penninsula Lab Inc. (Belmont, Calif.); peptides prepro-TRH 53-74, 83-106 and TRH precursor peptide (Lys-Arg-Gln-His-Pro-Gly-Lys-Arg) were obtained from American Peptide Co. Inc. (Sunnyvale, CA); and, peptides prepro-TRH 25-50, 208-220 and 230-255 were obtained from Quality Control QCB, Hopkington, Mass.
compound,measurement,setting,value
"CCCc1cc(=O)[nH]c(=S)[nH]1 [PTU, 6-propyl-thiouracil]",increase in macrophage MIP-1α mRNA levels on SCW administration,"[1]; SCW 20 μg/g ip, SCW-administered control rats 17-fold",22 fold
same,plasma CORT levels,"[1]; altered thyroid status, FIG. 12E",significant decrease
same,increase of hypothalamic TRH mRNA levels,"[1]; hypothyroid group, 0.05% in drinking water, seven weeks, p<0.01",52%
"EGEGVLMPE [prepro-TRH 191-199, CRIF peptide having nine contiguous amino acids]",PMA-stimulated ACTH secretion,At-20 cells,capable of inhibiting ACTH secretion at levels which are comparable to those achieved using full length CRIF
same,floating in the forced swim test,"F344XBN rats; icv sub-acute, equimolar 2.3 nmol/kg (2.2 μg/kg 191-199; 6 μg/kg 178-199), p<0.001",significantly decreased
same,climbing in the forced swim test,"F344XBN rats; icv sub-acute, equimolar 2.3 nmol/kg (2.2 μg/kg 191-199; 6 μg/kg 178-199), p<0.01",increased
same,immobility in the forced swim test,"F344XBN rats; icv, rat",decreased
FIDPELQRSWEEKEGEGVLMPE [prepro-TRH 178-199],side effects associated with administration,rats,no discernible deleterious side effects
KRQHPGKR [TRH precursor peptide],CRIF activity (ACTH secretion),[2],only peptide 178-199 exhibited CRIF activity
"Leu-Met-Pro-Glu (LMPE; printed: Leu-Met-Pro-Glu) [prepro-TRH 196-199, CRIF peptide having four contiguous amino acids]",PMA-stimulated ACTH secretion,At-20 cells,capable of inhibiting ACTH secretion at levels which are comparable to those achieved using full length CRIF
"prepro-TRH 25-50: intervening peptide of rat prepro-TRH, amino acids 25-50 (LPEAAQEEGAVTPDLPGLENVQVRPE; UniProt P01150 25-50, looked up, fragment)",bioactivity: basal and CRF-stimulated ACTH secretion,AtT-20 cells,only the peptide comprising amino acids 178-199 exhibited bioactivity
"prepro-TRH 53-74: intervening peptide of rat prepro-TRH, amino acids 53-74 (FLWKDLQRVRGDLGAALDSWIT; UniProt P01150 53-74, looked up, fragment)",bioactivity: basal and CRF-stimulated ACTH secretion,AtT-20 cells,only the peptide comprising amino acids 178-199 exhibited bioactivity
"prepro-TRH 83-106: intervening peptide of rat prepro-TRH, amino acids 83-106 (EEEEKDIEAEERGDLGEGGAWRLH; UniProt P01150 83-106, looked up, fragment)",bioactivity: basal and CRF-stimulated ACTH secretion,AtT-20 cells,only the peptide comprising amino acids 178-199 exhibited bioactivity
"prepro-TRH 115-151: intervening peptide of rat prepro-TRH, amino acids 115-151 (ANQDKYSWADEEDSDWMPRSWLPDFFLDSWFSDVPQV; UniProt P01150 115-151, looked up, fragment)",bioactivity: basal and CRF-stimulated ACTH secretion,AtT-20 cells,only the peptide comprising amino acids 178-199 exhibited bioactivity
"prepro-TRH 160-169: intervening peptide of rat prepro-TRH, amino acids 160-169 (SFPWMESDVT; UniProt P01150 160-169, looked up, fragment)",bioactivity: basal and CRF-stimulated ACTH secretion,AtT-20 cells,only the peptide comprising amino acids 178-199 exhibited bioactivity
"prepro-TRH 208-220: intervening peptide of rat prepro-TRH, amino acids 208-220 (ALGHPCGPQGTCG; UniProt P01150 208-220, looked up, fragment)",bioactivity: basal and CRF-stimulated ACTH secretion,AtT-20 cells,only the peptide comprising amino acids 178-199 exhibited bioactivity
"prepro-TRH 230-255: intervening peptide of rat prepro-TRH, amino acids 230-255 (DLSRGQETLVKQSPQVEPWDKEPLEE; UniProt P01150 230-255, looked up, fragment)",bioactivity: basal and CRF-stimulated ACTH secretion,AtT-20 cells,only the peptide comprising amino acids 178-199 exhibited bioactivity
same,CRIF activity (ACTH secretion),[2],only peptide 178-199 exhibited CRIF activity
